Experimental data published in US20180087086A1, “CELL EGRESS AND INVASION INHIBITORS AND THEIR USE AS ANTIPARASITICAL AGENTS” (THE JOHNS HOPKINS UNIVERSITY, priority 2015, published 2018).

Legend:
[1] = test system: sporozoites; test: sporozoite viability, propidium iodide exclusion assay; type: cell-based; settings: 10 min at 18° C. then 15 min at 37° C., DMSO 85%, read-out: sporozoite viability (PI exclusion)
Method: (§1) FIG. 12A-FIG. 12C is a series of bar charts that show results of sporozoite viability assays. […] The total number of sporozoites was determined from phase images and the number of non-viable sporozoites from the count of red fluorescing sporozoites.
To determine if the compounds' mode of action was by causing cell death, viability assays to look at compound effects were performed. In a first test of viability, a propidium iodide exclusion assay was used (FIG. 12A). The total number of sporozoites was determined from in phase imaging and the number of non-viable sporozoites from the count of red fluorescing sporozoites. […] 250 μM of compound 4 reduced viability to 79% while compound 18 indicated a protective effect with 93% viability.

[2] = target: TRAP interaction with aldolase (Plasmodium falciparum, UniProt Q7KQL9); test: TRAP-aldolase interaction via SPR; type: binding, P. falciparum; settings: as a function of compound concentration
Chain of TRAP interaction with aldolase (Q7KQL9 whole entry): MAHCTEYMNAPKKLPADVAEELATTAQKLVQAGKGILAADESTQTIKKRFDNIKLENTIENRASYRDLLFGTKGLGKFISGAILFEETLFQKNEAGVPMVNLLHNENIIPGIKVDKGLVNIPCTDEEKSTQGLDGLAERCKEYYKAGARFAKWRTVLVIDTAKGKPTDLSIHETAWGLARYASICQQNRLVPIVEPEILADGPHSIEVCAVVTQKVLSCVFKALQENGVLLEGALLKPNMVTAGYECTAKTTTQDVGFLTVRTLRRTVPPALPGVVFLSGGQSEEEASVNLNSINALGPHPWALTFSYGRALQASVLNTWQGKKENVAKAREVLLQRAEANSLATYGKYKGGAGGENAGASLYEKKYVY
Chain of TRAP interaction with aldolase (P16893 516-559, further chain): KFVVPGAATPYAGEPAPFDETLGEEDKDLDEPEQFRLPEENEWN
Method: (§2) FIG. 5A (Top) TRAP and FIG. 5B (Bottom) MTRAP show the interaction with aldolase in the presence of compounds 4 and 18 as a function of compound concentration as measured via SPR.
(§3) The dissociation constant for PfAldolase and PfTRAP, MTRAP and PvTRAP was measured by determining the binding response at various concentrations of aldolase passed over a chip with bound, biotinylated peptides (FIG. 3). Dissociation constants were in the mid-nanomolar range and matched with values previously reported in the literature (Boucher LE and Bosch J, J. Mol Recognit. 2013 Oct. 26(10): 496-500).
(§4) (FIG. 5A) TRAP and (FIG. 5B) MTRAP interaction with aldolase in the presence of compounds 4 and 18 is illustrated as a function of compound concentration as measured via SPR.

[3] = test system: P. falciparum sporozoites; test: dose-dependent killing of P. falciparum sporozoites; type: cell-based; settings: Plasmodium falciparum
Source text: Observed phenotype at lower concentration pinpoints towards an on-target effect of the compounds.

[4] = target: MTRAP interaction with aldolase (Plasmodium falciparum, UniProt Q7KQL9); test: MTRAP-aldolase interaction via SPR; type: binding, P. falciparum; settings: as a function of compound concentration
Chain of MTRAP interaction with aldolase (Q7KQL9 whole entry): as the sequence (Q7KQL9 whole entry) above
Method: as §2, §3, §4

[5] = test system: sporozoites; test: sporozoite viability, 2 dye system of ethidium and calcein-AM; type: cell-based; settings: for viability at 62.5 µM: 0.25 h, 15 min at room temperature, DMSO 96%; for sporozoite viability (ethidium/calcein-AM): extended 15 min incubation at 37° C.
Method: as §1
To further investigate viability, a 2 dye system of ethidium and calcein-AM was used to measure both membrane permeability, a marker of death, and enzyme activity, a marker of viability (FIG. 12B). Live cells with intact membranes are impermeable to the ethidium DNA dye but are permeable to the calcein-AM dye, which can interact with active esterases and will fluoresce green. Dying cells allow the ethidium to cross the membrane and interact with DNA, fluorescing red. This two color readout allowed discrimination between live versus dead sporozoites. Sporozoites were incubated at room temperature with two different concentrations of compounds for 15 min and then counted. […] Compound 4 and 18 at 62.5 μM reduced sporozoite viability to 82% and 88%, respectively. At these concentrations, assays could be performed such that the compounds would not kill the parasite. Instead, the compounds merely impaired parasite mobility, indicating an on-target effect of the small molecule on Aldolase-TRAP. By modulating this interaction, despite not killing the parasites at that point, a dramatic reduction in liver cell invasion was observed (FIG. 14A). […] As these dyes are unable to be fixed and sporozoites are not viable for long periods of time, it is possible that there are some viability variances due to difference in time from incubation with the dye until counting.

[6] = test system: P. berghei parasites constitutively expressing mCherry; test: live imaging of mCherry expressing sporozoite gliding; type: cell-based; settings: for average gliding velocity: DMSO control 2.58+/−0.05 um/s; for total time spent gliding: 200 frame movies, control 46 frames; for pausing, fraction of active gliding time: control 7%; for waving sporozoites: manual assignment from z-stacks, control 15% waving
Source text: To determine the compound effects on the speed of gliding and type of gliding movement, live imaging of mCherry expressing parasites was used. P. berghei parasites constitutively expressing mCherry were allowed to settle on slides and imaged using an inverted microscope at 1.57 fps. ImageJ and the ToAST plugin were used to track parasites for a minimum of 150 frames in the 200 frame movies. The coordinates obtained via the automated tracking were much more useful than those using manual tracking. The ToAST plugin provides automatic identification of sporozoites from debris by aspect ratio and pixel analysis. The program also measures velocity and determine whether sporozoites are gliding in counterclockwise (CCW) or clockwise (CW) patterns, or whether they are stationary or waving, with large changes in vector angles between images.
Instead, the output position data was reanalyzed using similar algorithms as defined by ToAST. Sporozoites were assigned to one of four states at each time point, CW gliding, CCW gliding, stationary, or waving. To determine the speed of gliding, the average velocity was determined for sections of time in which the sporozoite was gliding continuously for more than 6 frames. Sporozoites would often glide for a number of frames and then stop gliding for a number of frames before continuing movement, resulting in more than one block of frames representing continuous gliding. The average for each sporozoite was a weighted average of the average speed during each block of gliding. The DMSO control parasites traveled in a CCW and CW pattern at an average speed of 2.58+/−0.05 um/s. […] Compound 4 gliding information was collected at a lower concentration compared to compound 18 because it was not possible to obtain a sufficient number of circularly gliding parasites for analysis at the higher concentrations (FIG. 11A).
As previously mentioned, sporozoites would often glide for several frames, then stop or pause, and then continue gliding. Upon initial observation of compound 4 samples, it was observed that parasites tended to glide in a stop-and-go manner, gliding for 4-6 frames and then stopping for 2-3 frames. To determine whether these pauses deviated from those observed in the control, the movies were analyzed to determine the total amount of time spent circularly gliding over the course of the 200 frame movies (FIG. 11C). Additionally, the fraction of time that the sporozoites paused for during active gliding was measured (FIG. 11D). A pause was defined as a cessation of circular gliding for no more than 10 frames. The fraction of paused frames to moving frames was measured for stretches of active gliding. […] Compound 4 increased pausing to 32% of the active gliding time, while compound 18 increased pauses to just 16% (FIG. 11D).
Z-stack images were created using ImageJ using the average intensity in each frame. From these frames, patterns of movements to one of two categories were assigned, circular gliding or waving. Waving sporozoites are defined as having on end attached while the other end moves or waves freely (FIG. 11F), resulting in large angular changes in the direction of the vector that lies along the sporozoite. Both compound 4 and 18 changed the ratio between gliding and waving sporozoites. In the control, nearly 85% of sporozoites are gliding circularly and 15% waving, whereas 72% and 66% are waving in compound 4 and 18 samples, respectively.

[7] = test system: sporozoites; test: sporozoite viability, LIVE/DEAD fixable violet assay; type: cell-based
Source text: However, the viability decrease is not high enough to account for the levels of non-gliding sporozoites observed in the gliding assays.

Structure (SMILES)	viability at 250 µM [1] [%]	binding interaction of TRAP with aldolase in presence of compound [2]	EC90 [3] [µM]	binding interaction of MTRAP with aldolase in presence of compound [4]	viability at 62.5 µM [5] [%]	sporozoite viability (ethidium/calcein-AM) [5]	average gliding velocity ([6]; 62.5 μM)	total time spent gliding [6] [frames]	pausing, fraction of active gliding time [6] [%]	waving sporozoites [6] [%]	effect on viability in LIVE/DEAD assay [7]	average gliding velocity ([6]; 3.9 μM)
CCCCn1c(N)c(C(=O)NCc2ccccc2)c2nc3ccccc3nc21 [Compound 18, 2-amino-N-benzyl-1-butyl-1H-pyrrolo[2,3-b]quinoxaline-3-carboxamide]	93	Increased binding interaction	~30	Increased binding interaction	88	did not differ from the control	1.88+/−0.17 um/s	16	16	66	relatively mild	–
Brc1ccc(Nc2nc3ccccc3nc2Nc2ccc(Br)cc2)cc1 [Compound 4, N,N′-bis(4-bromophenyl)-2,3-quinoxalinediamine]	79	Increased binding interaction	~125	Increased binding interaction	82	66%	–	25	32	72	greater decrease in viability	1.81+/−0.09 um/s
